pIC50: −log10 of the molar value.
Columns and labels:
p110α Type Ia human PI3K = target: T1, p110α Type Ia human PI3K (Homo sapiens, UniProt P42336); assay: In vitro PI3K enzyme assay (AlphaScreen), Test (a); type: biochemical; conditions: read-out: IC50 versus p110α Type Ia human PI3K
T1 construct: full length DNA of each of the p110α, p110β and […] Type Ia human PI3K p110 isoforms; 6-His; made in house
From the text: The assay used AlphaScreen technology (Gray et al., Analytical Biochemistry, 2003, 313: 234-245) to determine the ability of test compounds to inhibit phosphorylation by recombinant Type I PI3K enzymes of the lipid PI(4,5)P2.
DNA fragments encoding human PI3K catalytic and regulatory subunits were isolated from cDNA libraries using standard molecular biology and PCR cloning techniques. The selected DNA fragments were used to generate baculovirus expression vectors. In particular, full length DNA of each of the p110α, p110β and […] Type Ia human PI3K p110 isoforms (EMBL Accession Nos. HSU79143, S67334, Y10055 for p110a, p110β and p110δ respectively) were sub-cloned into a pDEST10 vector (Invitrogen Limited, Fountain Drive, Paisley, UK). The vector is a Gateway-adapted version of Fastbac1 containing a 6-His epitope tag. […]
Biotinylated-DiC8-PI(3,4,5)P3 (50 nM; Cell Signals Inc., Catalogue No. 107), recombinant purified GST-Grp1 PH protein (2.5 nM) and AlphaScreen Anti-GST donor and acceptor beads (100 ng; Packard Bioscience Limited, Station Road, Pangbourne, Berkshire, UK, Catalogue No. 6760603M) were added and the assay plates were left for about 5 to 20 hours at room temperature in the dark. The resultant signals arising from laser light excitation at […] were read using a Packard AlphaQuest instrument. […]

[1] = tested on: phosphorylation of Serine 473 in Akt; assay: In vitro phospho-Ser473 Akt assay in MDA-MB-468 cells, Test (c); type: cell-based; conditions: Homo sapiens, read-out: IC50, inhibition of phosphorylation of Serine 473 in Akt
Experimental: This assay determines the ability of test compounds to inhibit phosphorylation of Serine 473 in Akt as assessed using Acumen Explorer technology (TTP LabTech Limited, Royston, Herts, SG8 6EE, UK), a plate reader that can be used to rapidly quantitate features of images generated by laser-scanning.
A MDA-MB-468 human breast adenocarcinoma cell line (LGC Promochem, Teddington, Middlesex, UK, Catalogue No. HTB-132) was routinely maintained at 37° C. with 5% CO2 up to a confluency of 70-90% in DMEM containing 10% FCS and 1% L-glutamine.
For the assay, the cells were detached from the culture flask using ‘Accutase’ (Innovative Cell Technologies Inc., San Diego, Calif., USA; Catalogue No. AT104) using standard tissue culture methods and resuspended in media to give 5.5×10^4 cells per ml. Aliquots (90 μl) were seeded into each of the inner 60 wells of a black ‘Costar’ 96-well plate (Corning Inc., NY, USA; Catalogue No. 3904) to give a density of ˜5000 cells per well. Aliquots (90 μl) of culture media were placed in the outer wells to prevent edge effects. [An alternative cell handling procedure involved the maintenance of the cells in a ‘SelecT’ robotic device (The Automation Partnership, Royston, Herts SG8 5WY, UK). Cells were resuspended in media to give 5×10^4 cells per ml. Aliquots (100 μl) were seeded into the wells of a black ‘Costar’ 96-well plate.] […]

T1 sequence (P42336 whole entry, canonical isoform): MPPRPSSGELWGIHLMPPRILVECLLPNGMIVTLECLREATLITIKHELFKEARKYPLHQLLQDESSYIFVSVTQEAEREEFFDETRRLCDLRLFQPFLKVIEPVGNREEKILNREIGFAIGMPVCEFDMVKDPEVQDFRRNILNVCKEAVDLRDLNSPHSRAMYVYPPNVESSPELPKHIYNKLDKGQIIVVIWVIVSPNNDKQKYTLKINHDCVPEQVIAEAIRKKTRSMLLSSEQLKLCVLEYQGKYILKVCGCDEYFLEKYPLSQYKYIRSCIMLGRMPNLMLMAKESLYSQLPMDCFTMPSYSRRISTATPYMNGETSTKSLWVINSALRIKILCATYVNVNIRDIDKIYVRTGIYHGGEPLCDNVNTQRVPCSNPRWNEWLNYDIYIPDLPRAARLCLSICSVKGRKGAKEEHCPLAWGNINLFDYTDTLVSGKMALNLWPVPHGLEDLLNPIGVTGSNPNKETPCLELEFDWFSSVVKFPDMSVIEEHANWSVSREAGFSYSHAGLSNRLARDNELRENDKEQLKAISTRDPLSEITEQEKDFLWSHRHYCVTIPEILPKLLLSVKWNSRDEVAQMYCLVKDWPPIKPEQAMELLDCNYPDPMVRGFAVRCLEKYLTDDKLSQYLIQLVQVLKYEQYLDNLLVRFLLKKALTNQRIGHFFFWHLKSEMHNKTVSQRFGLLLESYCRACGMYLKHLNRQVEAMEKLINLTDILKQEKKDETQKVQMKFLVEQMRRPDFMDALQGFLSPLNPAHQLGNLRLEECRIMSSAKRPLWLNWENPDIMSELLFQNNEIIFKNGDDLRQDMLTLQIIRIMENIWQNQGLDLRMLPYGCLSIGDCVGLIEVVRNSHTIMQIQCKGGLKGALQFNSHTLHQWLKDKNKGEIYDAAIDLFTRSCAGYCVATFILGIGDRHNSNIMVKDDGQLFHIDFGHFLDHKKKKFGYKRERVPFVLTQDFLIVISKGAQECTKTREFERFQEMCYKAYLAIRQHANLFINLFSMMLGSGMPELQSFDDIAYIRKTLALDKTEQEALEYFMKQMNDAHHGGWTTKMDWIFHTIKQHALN
T1 sequence (P27986 whole entry partner, canonical isoform): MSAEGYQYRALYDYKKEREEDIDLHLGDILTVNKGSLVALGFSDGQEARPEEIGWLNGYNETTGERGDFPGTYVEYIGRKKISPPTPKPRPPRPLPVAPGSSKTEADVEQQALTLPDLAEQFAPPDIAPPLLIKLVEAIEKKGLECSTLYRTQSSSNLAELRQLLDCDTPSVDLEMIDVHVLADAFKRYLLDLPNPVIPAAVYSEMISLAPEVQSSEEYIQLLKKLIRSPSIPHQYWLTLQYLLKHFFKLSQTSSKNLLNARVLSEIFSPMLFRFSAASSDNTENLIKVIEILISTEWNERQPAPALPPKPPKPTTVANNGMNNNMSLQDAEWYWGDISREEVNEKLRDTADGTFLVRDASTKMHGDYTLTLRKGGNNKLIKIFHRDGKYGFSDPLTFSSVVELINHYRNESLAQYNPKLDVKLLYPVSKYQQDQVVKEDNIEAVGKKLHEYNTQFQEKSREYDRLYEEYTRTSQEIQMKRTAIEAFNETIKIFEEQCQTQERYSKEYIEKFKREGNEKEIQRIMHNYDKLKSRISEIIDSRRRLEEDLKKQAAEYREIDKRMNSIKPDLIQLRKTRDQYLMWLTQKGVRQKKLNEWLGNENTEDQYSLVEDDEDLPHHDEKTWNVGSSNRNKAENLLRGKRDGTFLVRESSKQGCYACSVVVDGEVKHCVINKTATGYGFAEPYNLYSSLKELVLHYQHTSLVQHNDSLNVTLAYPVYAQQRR

Structure (SMILES): CNCC(=O)Nc1ccc(-c2cc(N3CCOCC3)nc(-n3c(C(F)F)nc4ccccc43)n2)cc1 [Example 5, 2-(2-difluoromethylbenzimidazol-1-yl)-6-morpholino-4-(4-sarcosylaminophenyl)pyrimidine]
- pIC50 (p110α Type Ia human PI3K): ~6.52
- pIC50 [1]: ~7.70

Structure (SMILES): CN(C)CCNC(=O)c1ccc(-c2cc(N3CCOCC3)nc(-n3c(C(F)F)nc4ccccc43)n2)cc1 [Example 9, 2-(2-difluoromethylbenzimidazol-1-yl)-4-{4-[N-(2-dimethylaminoethyl)carbamoyl]phenyl}-6-morpholinopyrimidine]
- pIC50 (p110α Type Ia human PI3K): ~6.52
- pIC50 [1]: ~7.00

— patent publication US20090325954A1, “2-BENZIMIDAZOLYL-6-MORPHOLINO-4-PHENYLPYRIMIDINE DERIVATIVES AS PI3K AND MTOR INHIBITORS FOR THE TREATMENT OF PROLIFERATIVE DISORDERS” (priority 2006, published 2009)
